# Measurements as given in US12686665B2, “Bicyclic fused ring derivative or salt thereof and pharmaceutical composition comprising same” (YUHAN CORPORATION, priority 2021, dated 2026).
# Counter-ions that a name gives are not always drawn.
# What was measured:
# Format in all cases: biochemical
# [1] = target: T1, recombinant human Lysyl Oxidase-Like 2 (LOXL2) (Homo sapiens, UniProt Q9Y4K0); experiment: Amplex Red HRP-coupled amine oxidase assay, recombinant human LOXL2; settings: 60 min incubation with enzyme at 37° C., putrescine substrate, read-out: Inhibitory activity (IC50, nM) human LOXL2
# T1 construct: purchased R&D systems
# T1 sequence (Q9Y4K0 26-774): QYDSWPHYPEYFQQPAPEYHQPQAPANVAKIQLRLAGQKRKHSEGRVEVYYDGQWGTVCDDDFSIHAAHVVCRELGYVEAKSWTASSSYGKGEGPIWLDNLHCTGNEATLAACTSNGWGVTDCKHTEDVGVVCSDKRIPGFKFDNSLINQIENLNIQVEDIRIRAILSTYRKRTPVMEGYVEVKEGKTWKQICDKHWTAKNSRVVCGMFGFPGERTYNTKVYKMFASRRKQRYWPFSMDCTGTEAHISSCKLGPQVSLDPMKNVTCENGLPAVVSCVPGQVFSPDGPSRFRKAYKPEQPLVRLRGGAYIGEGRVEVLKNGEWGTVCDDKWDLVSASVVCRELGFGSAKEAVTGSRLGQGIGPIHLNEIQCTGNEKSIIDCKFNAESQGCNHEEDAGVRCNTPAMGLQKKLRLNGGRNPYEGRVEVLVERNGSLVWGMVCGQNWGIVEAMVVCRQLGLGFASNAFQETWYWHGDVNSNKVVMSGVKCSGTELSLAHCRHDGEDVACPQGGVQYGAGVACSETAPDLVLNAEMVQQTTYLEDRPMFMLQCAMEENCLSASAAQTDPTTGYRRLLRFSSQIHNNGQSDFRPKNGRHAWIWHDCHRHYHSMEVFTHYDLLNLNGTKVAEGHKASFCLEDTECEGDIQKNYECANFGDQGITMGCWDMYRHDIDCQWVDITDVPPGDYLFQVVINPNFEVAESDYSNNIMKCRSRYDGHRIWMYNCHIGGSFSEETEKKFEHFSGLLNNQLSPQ
# How it was run: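 Putrescine substrate (30 mM) in 50 mM sodium phosphate pH 7.4, 37 °C; compounds preincubated 60 min with enzyme, 1% DMSO final, six-point curves. H2O2 detected via 400 μM Amplex Red/2 U/mL HRP, fluorescence (ex 530/em 590 nm) after 1 h; IC50 from four-parameter logistic fit of % signal reduction.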
# [2] = target: T2, recombinant human MAO-A (monoamine oxidase-A) (Homo sapiens, UniProt P21397); experiment: Amplex Red HRP-coupled amine oxidase assay, recombinant human MAO-A; settings: 0.5 mM tyramine substrate, read-out: Inhibitory activity (IC50, nM) MAO-A
# T2 construct: purchased Sigma-Aldrich
# T2 sequence (P21397 1-527): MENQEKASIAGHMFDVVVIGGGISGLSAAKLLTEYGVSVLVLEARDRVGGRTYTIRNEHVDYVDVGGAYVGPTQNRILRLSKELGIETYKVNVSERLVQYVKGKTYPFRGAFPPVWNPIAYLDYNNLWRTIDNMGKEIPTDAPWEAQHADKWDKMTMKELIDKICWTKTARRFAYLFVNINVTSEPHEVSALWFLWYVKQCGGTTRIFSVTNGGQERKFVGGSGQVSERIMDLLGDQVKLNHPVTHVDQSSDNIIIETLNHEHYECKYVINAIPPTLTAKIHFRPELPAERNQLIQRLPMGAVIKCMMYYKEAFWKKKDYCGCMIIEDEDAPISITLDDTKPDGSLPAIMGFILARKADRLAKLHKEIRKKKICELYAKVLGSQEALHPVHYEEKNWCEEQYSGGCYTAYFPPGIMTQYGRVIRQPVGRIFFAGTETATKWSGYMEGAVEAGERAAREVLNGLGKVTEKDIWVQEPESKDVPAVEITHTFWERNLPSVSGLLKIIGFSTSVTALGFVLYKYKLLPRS
# How it was run: (§1)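 Enzyme preincubated 60 min at 37 °C with compound (six-point curve, 1% DMSO final) in 50 mM sodium phosphate pH 7.4, then Amplex Red 400 μM and HRP 2 U/mL added with substrate: MAO-A 0.5 mM tyramine, MAO-B 1 mM benzylamine, DAO 1 mM putrescine. Resorufin fluorescence read after 1 h; IC50 by four-parameter logistic fit.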
# [3] = target: T3, recombinant human MAO-B (monoamine oxidase-B) (Homo sapiens, UniProt P27338); experiment: Amplex Red HRP-coupled amine oxidase assay, recombinant human MAO-B; settings: 1 mM benzylamine substrate, read-out: Inhibitory activity (IC50, nM) MAO-B
# T3 construct: purchased Sigma-Aldrich
# T3 sequence (P27338 1-520): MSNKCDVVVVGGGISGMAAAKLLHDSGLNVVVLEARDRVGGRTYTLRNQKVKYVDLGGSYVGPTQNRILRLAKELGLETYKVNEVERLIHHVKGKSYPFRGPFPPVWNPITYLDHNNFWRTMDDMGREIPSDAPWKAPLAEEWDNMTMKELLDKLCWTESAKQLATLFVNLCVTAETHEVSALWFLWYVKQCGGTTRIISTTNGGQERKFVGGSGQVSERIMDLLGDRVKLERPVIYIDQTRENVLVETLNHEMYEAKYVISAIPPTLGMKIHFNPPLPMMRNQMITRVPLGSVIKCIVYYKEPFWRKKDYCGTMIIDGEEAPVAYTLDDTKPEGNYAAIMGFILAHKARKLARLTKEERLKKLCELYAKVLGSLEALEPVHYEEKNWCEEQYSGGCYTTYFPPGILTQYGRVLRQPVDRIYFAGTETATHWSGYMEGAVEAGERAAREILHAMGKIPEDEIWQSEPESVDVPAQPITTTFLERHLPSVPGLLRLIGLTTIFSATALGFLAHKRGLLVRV
# How it was run: as §1
# [4] = target: T4, recombinant human DAO (diamine oxidase) (Homo sapiens, UniProt P19801); experiment: Amplex Red HRP-coupled amine oxidase assay, recombinant human DAO; settings: 1 mM putrescine substrate, read-out: Inhibitory activity (IC50, nM) DAO
# T4 construct: purchased R&D systems
# T4 sequence (P19801 20-751): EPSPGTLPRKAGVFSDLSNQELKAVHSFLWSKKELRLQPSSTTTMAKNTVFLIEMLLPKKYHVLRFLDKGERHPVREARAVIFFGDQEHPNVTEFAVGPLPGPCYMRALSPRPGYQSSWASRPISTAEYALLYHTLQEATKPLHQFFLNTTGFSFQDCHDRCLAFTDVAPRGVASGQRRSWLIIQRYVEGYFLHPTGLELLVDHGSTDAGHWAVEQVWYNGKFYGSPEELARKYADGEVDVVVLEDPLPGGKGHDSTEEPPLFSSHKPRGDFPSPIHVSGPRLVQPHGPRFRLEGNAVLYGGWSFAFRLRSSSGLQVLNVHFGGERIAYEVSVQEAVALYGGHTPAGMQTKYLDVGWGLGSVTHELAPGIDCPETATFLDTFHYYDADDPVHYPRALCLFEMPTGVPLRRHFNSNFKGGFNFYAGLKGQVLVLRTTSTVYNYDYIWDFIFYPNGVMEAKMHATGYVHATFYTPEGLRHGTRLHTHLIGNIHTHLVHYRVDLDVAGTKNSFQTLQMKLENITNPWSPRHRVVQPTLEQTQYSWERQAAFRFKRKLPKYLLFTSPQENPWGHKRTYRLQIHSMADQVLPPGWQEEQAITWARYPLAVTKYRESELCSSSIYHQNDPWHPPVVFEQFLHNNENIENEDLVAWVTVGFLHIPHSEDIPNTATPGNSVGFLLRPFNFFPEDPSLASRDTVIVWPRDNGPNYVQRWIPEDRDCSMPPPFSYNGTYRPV
# How it was run: as §1
compound,measurement,setting,value
"COC(=O)c1cc(-c2cccc(S(=O)(=O)N(C)C)c2)c2nc(C)n(C/C(F)=C/CN)c2c1 [Example 66, methyl (Z)-1-(4-amino-2-fluorobut-2-en-1-yl)-4-(3-(N,N-dimethylsulfamoyl)phenyl)-2-methyl-1H-benzo[d]imidazol-6-carboxylate hydrochloride]",IC50,[1],28 nM
same,IC50,[2],7890 nM
same,IC50,[3],> 100000 nM
same,IC50,[4],1610 nM
"COC(=O)c1cc(-c2cccc(S(C)(=O)=O)c2)c2nc(C)n(C/C(F)=C/CN)c2c1 [Example 67, methyl (Z)-1-(4-amino-2-fluorobut-2-en-1-yl)-2-methyl-4-(3-(methylsulfonyl)phenyl)-1H-benzo[d]imidazol-6-carboxylate hydrochloride]",IC50,[1],83 nM
same,IC50,[2],> 100000 nM
same,IC50,[3],> 100000 nM
same,IC50,[4],646 nM
"COC(=O)c1cc(-c2cccc(S(=O)(=O)N3CCCC3)c2)c2nc(C)n(C/C(F)=C/CN)c2c1 [Example 70, methyl (Z)-1-(4-amino-2-fluorobut-2-en-1-yl)-2-methyl-4-(3-(pyrrolidin-1-ylsulfonyl)phenyl)-1H-benzo[d]imidazol-6-carboxylate hydrochloride]",IC50,[1],60 nM
same,IC50,[2],10300 nM
same,IC50,[3],> 100000 nM
same,IC50,[4],2500 nM
"CNS(=O)(=O)c1cccc(-c2cc(C(=O)OC)cc3c2nc(C)n3C/C(F)=C/CN)c1 [Example 73, methyl (Z)-1-(4-amino-2-fluorobut-2-en-1-yl)-2-methyl-4-(3-(N-methylsulfamoyl)phenyl)-1H-benzo[d]imidazol-6-carboxylate hydrochloride]",IC50,[1],58 nM
same,IC50,[2],47900 nM
same,IC50,[3],> 100000 nM
same,IC50,[4],1810 nM
"Cc1nc2c(-c3cccc(S(=O)(=O)N(C)C)c3)cc(C(=O)N(C)C)cc2n1C/C(F)=C/CN [Example 76, (Z)-1-(4-amino-2-fluorobut-2-en-1-yl)-4-(3-(N,N-dimethylsulfamoyl)phenyl)-N,N,2-trimethyl-1H-benzo[d]imidazol-6-carboxamide hydrochloride]",IC50,[1],58 nM
same,IC50,[2],12400 nM
same,IC50,[3],> 100000 nM
same,IC50,[4],24600 nM
"CCc1nc2c(-c3cccc(S(=O)(=O)N(C)C)c3)cccc2n1C/C(F)=C/CN [Example 84, (Z)-3-(1-(4-amino-2-fluorobut-2-en-1-yl)-2-ethyl-1H-benzo[d]imidazol-4-yl)-N,N-dimethyl benzenesulfonamide hydrochloride]",IC50,[1],65 nM
same,IC50,[2],65000 nM
same,IC50,[3],> 100000 nM
same,IC50,[4],6690 nM
"COc1ccc(-c2cccc3c2nnn3C/C(F)=C/CN)cc1S(=O)(=O)N(C)C [Example 102, (Z)-5-(1-(4-amino-2-fluorobut-2-en-1-yl)-1H-benzo[d][1,2,3]triazol-4-yl)-2-methoxy-N,N-dimethylbenzenesulfonamide hydrochloride]",IC50,[1],17 nM
same,IC50,[2],86600 nM
same,IC50,[3],12400 nM
same,IC50,[4],37400 nM
"NC/C=C(\F)Cn1nnc2c(-c3cccc(S(=O)(=O)N4CCC(F)(F)C4)c3)cccc21 [Example 103, (Z)-4-(4-(3-((3,3-difluoropyrrolidin-1-yl)sulfonyl)phenyl)-1H-benzo[d][1,2,3]triazol-1-yl)-3-fluorobut-2-en-1-amine hydrochloride]",IC50,[1],25 nM
same,IC50,[2],9060 nM
same,IC50,[3],23500 nM
same,IC50,[4],27900 nM
"CNS(=O)(=O)c1ccc(OC)c(-c2cccc3c2nnn3C/C(F)=C/CN)c1 [Example 105, (Z)-3-(1-(4-amino-2-fluorobut-2-en-1-yl)-1H-benzo[d][1,2,3]triazol-4-yl)-4-methoxy-N-methylbenzenesulfonamide hydrochloride]",IC50,[1],26 nM
same,IC50,[2],55100 nM
same,IC50,[3],> 100000 nM
same,IC50,[4],36000 nM
"COc1ccc(S(=O)(=O)NC2CC2)cc1-c1cccc2c1nnn2C/C(F)=C/CN [Example 108, (Z)-3-(1-(4-amino-2-fluorobut-2-en-1-yl)-1H-benzo[d][1,2,3]triazol-4-yl)-N-cyclopropyl-4-methoxybenzenesulfonamide hydrochloride]",IC50,[1],42 nM
same,IC50,[2],> 100000 nM
same,IC50,[3],> 100000 nM
same,IC50,[4],> 100000 nM
